Results from paper PMC4738285 (Scientific Reports, 2016).

Columns and labels:
[1] = test system: Ia of C. perfringens iota toxin; assay type: biochemical, Clostridium perfringens
[2] = test system: C. perfringens iota toxin on Vero cells; assay type: cell-based, African green monkey
[3] = test system: iota toxin receptor binding on Vero cells; assay type: cell-based, African green monkey; settings: 4 °C, 30 min
HeLa cells [4] = assay type: cell-based, human
SH-SY5Y = assay: cells; assay type: cell-based; settings: Homo sapiens, 48 h, read-out: EC50 value
HeLa = assay: cells; assay type: cell-based; settings: Homo sapiens, 48 h, read-out: EC50 value
HeLa cells [5] = assay type: cell-based, human; remark: listed apart in the source
Hsp70 [6] = molecular target: T1, Hsp70 (Homo sapiens, UniProt P0DMV8); assay: biochemical; design: made in house
T1 sequence (P0DMV8 whole entry): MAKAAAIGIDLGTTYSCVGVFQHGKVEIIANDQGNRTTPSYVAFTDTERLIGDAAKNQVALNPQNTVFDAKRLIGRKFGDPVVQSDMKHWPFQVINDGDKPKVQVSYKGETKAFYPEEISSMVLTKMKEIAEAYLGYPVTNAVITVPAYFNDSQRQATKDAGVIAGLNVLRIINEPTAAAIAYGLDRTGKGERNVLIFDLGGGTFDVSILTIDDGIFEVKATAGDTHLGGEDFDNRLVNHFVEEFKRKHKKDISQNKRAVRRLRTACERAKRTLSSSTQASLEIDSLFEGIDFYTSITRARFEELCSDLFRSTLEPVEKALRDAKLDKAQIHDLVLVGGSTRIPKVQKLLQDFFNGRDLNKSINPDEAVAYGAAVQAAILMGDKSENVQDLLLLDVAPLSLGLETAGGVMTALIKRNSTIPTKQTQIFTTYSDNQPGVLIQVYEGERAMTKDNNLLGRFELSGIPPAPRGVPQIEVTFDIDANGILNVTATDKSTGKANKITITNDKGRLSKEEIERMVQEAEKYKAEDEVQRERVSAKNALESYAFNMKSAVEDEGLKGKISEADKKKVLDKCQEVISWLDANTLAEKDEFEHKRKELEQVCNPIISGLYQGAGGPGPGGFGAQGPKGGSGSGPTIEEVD

HT-29 = assay: cells; assay type: cell-based; settings: Homo sapiens, HT-29, 48 h, read-out: EC50 value
HEK-293 = assay: cells; assay type: cell-based; settings: Homo sapiens, HEK293, 48 h, read-out: EC50 value
HeLa cells [7] = settings: human, 24 h
HeLa cells [8] = assay: cells; assay type: cell-based; settings: Homo sapiens; for EC50: read-out: EC50 cell survival, clonogenic assay; for IC50: read-out: IC50 survival, clonogenic assay
[9] = test system: C. perfringens iota toxin on Vero cells; assay type: cell-based, African green monkey; remark: listed apart in the source
Hsc70 [10] = molecular target: T2, Hsc70 (Homo sapiens, UniProt P11142); assay: biochemical; assay type: biochemical; design: made in house
T2 sequence (P11142 whole entry): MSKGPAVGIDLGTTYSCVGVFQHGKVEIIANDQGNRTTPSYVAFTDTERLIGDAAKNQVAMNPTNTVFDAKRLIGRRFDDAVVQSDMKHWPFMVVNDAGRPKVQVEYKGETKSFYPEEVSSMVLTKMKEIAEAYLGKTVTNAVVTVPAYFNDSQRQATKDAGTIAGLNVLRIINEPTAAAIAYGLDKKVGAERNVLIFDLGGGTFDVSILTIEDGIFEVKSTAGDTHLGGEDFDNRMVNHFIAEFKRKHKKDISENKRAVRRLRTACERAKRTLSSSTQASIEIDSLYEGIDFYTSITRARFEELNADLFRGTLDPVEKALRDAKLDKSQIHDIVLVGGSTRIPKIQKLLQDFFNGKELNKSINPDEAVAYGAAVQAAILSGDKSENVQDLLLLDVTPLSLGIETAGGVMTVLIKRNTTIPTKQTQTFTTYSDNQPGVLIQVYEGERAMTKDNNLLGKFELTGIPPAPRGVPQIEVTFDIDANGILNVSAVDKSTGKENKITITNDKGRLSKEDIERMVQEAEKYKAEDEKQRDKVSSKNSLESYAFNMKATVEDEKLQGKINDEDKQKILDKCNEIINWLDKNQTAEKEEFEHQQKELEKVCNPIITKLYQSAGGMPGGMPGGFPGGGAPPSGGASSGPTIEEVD

Hsp70 [11] = settings: read-out: dissociation constant; cited from earlier work
Hsp70 [12] = molecular target: T1, Hsp70; assay type: binding; design: made in house; settings: HeLa cell lysate
HeLa cells [13] = assay type: cell-based, human; remark: listed apart in the source
Hsp70 [14] = molecular target: T1, Hsp70; assay type: binding; design: made in house; settings: 500 nM Hsp70, 50 μM 1; five of six regions
Hsp70 [15] = molecular target: T1, Hsp70; settings: ITC, 20 °C
HeLa cells [16] = assay type: cell-based, human; remark: listed apart in the source
Hsc70 [17] = molecular target: T2, Hsc70; assay type: binding; design: endogenous in cells; host or cells: HeLa cell lysate; settings: HeLa cell lysate
Hsp70 [18] = molecular target: T1, Hsp70; assay: biochemical
Hsp70 [19] = molecular target: T1, Hsp70; assay type: biochemical; design: made in house; settings: concentrations up to 200 μM; 0.5 μM Hsp70, 1 mM ATP

SMILES: C[C@@H]1C[C@H]2O[C@@H]2/C=C\C=C\C(=O)Cc2c(Cl)c(O)cc(O)c2C(=O)O1 [radicicol]
- enzyme activity of Ia [1]: had no effect
- round cells after acidic pulse (translocation of Ia) [2]: significantly less round cells
- binding of iota toxin to the cells [3]: had no effect

SMILES: CSc1ccc2c[n+]3ccccc3cc2c1 [Compound 3]
- localization of Hsp70 at 37 °C (HeLa cells [4]): did not alter
- localization of Hsp70 at 42 °C (HeLa cells [4]): did not alter
- EC50 (SH-SY5Y): 70 ± 10.5 µM
- EC50 (HeLa): 35.8 ± 12.4 µM
- cleavage of procaspases 3 and 7 in combination with staurosporine (HeLa cells [5]): did not result in significant procaspase cleavage
- procaspase cleavage, compound alone (HeLa cells [5]): did not result in significant procaspase cleavage
- IC50 (Hsp70 [6]): 1050 ± 53 µM
- EC50 (HT-29): 115 ± 52.4 µM
- EC50 (HEK-293): 22.6 ± 1.3 µM
- compound remaining intact in HeLa cell lysate (HeLa cells [7]): 90%
- EC50 (HeLa cells [8]): 13.1 µM
- IC50 (HeLa cells [8]): 13.1 µM
- intoxication of Vero cells with iota toxin [9]: no comparable inhibitory effect
- IC50 (Hsc70 [10]): 931 ± 47 µM

SMILES: N#Cc1ccc(COC[C@H]2O[C@@H](n3c(NCc4ccc(Cl)c(Cl)c4)nc4c(N)ncnc43)[C@H](O)[C@@H]2O)cc1 [VER-155008]
- enzyme activity of Ia [1]: had no effect
- round cells after acidic pulse (translocation of Ia) [2]: significantly less round cells
- intoxication of the cells with iota toxin [9]: inhibitory effect
- Kd (Hsp70 [11]): 0.3 µM
- binding of iota toxin to the cells [3]: had no effect

SMILES: Nc1ccc2c[n+]3ccccc3cc2c1 [Compound 1]
- cytoplasmic vacuolization after heat stress (HeLa cells [4]): strong cytoplasmic vacuolization
- localization of Hsp70 at 37 °C (HeLa cells [4]): did not alter
- localization of Hsp70 at 42 °C (HeLa cells [4]): dramatic Hsp70 re-distribution into the whole nucleus
- subcellular distribution of Hsp70 in thymidine- and nocodazole-treated cells (HeLa cells [4]): did not change
- EC50 (SH-SY5Y): 58.1 ± 4.6 µM
- EC50 (HeLa): 19.5 ± 2.5 µM
- apoptosis induction by staurosporine (HeLa cells [5]): enhanced apoptosis induction
- cleavage of procaspases 3 and 7 in combination with staurosporine (HeLa cells [5]): synergistic effect
- procaspase cleavage, compound alone (HeLa cells [5]): did not result in significant procaspase cleavage
- Hsp70 bound to matrix-coupled 1 (Hsp70 [12]): detection of Hsp70
- IC50 (Hsp70 [6]): 45 ± 4 µM
- EC50 (HT-29): 71.6 ± 34 µM
- EC50 (HEK-293): 29.1 ± 1.1 µM
- compound remaining intact in HeLa cell lysate (HeLa cells [7]): 90%
- EC50 (HeLa cells [8]): 11.2 µM
- IC50 (HeLa cells [8]): 11.2 µM
- amount of Hsp70 in HeLa cells (HeLa cells [13]): did not influence
- Hsp70 binding to p53-derived peptide regions in the presence of 1 (Hsp70 [14]): abolished
- toxin-induced cell-rounding [9]: significantly delayed
- stoichiometry N (Hsp70 [15]): 1.1
- TΔSITC (Hsp70 [15]; pH 7.8): 8.3 kcal/mol
- binding enthalpy ΔHITC (Hsp70 [15]; pH 7.8): 1.3 ± 0.3 kcal/mol
- ΔGITC (Hsp70 [15]; pH 7.8): -7.0 kcal/mol
- accumulation in G2/M phase (HeLa cells [16]): did not accumulate in the G2/M phase
- cell cycle phase distribution (HeLa cells [16]): did not result in changes
- cells remaining in G2/M (HeLa cells [16]): > 20%
- Hsc70 bound to matrix-coupled 1 (Hsc70 [17]): no detectable amount of Hsc70
- IC50 (Hsc70 [10]): 363 ± 20 µM
- Inhibition of Hsc70 less efficient compared to Hsp70 (Hsc70 [10]; luciferase refolding): 8 fold
- Kd (Hsp70 [18]): 5.6 ± 3.1 µM
- ATPase activity of Hsp70 (Hsp70 [19]): remained unaffected

SMILES: [Br-].[Na+] [NaBr]
- apoptosis of HeLa cells, salt with staurosporine (HeLa cells [5]): do not affect

SMILES: F[B-](F)(F)F.[Na+] [NaBF4]
- apoptosis of HeLa cells, salt with staurosporine (HeLa cells [5]): do not affect

SMILES: c1cc[n+]2cc3ccc(N4CCCC4)cc3cc2c1 [Compound 2]
- IC50 (Hsp70 [6]): 127 ± 7 µM
- IC50 (Hsc70 [10]): 34 ± 3 µM
